The text below walks through data of patent US5136076A, “Process for the preparation of amino acid-derived enatiomeric compounds” (Societe Civile Bioprojet, priority 1987, dated 1992).

For assay [1] the following is noted: cited from earlier work.
The test system of assay [2] is angiotensin conversion enzyme (ACE). To be noted: cited from earlier work.
The target in assay [3] is T1, enkephalinase (Mus musculus, UniProt Q61391).
T1 construct: Activity measured on striatum membranes according to Llorens et al., J; from tissue; host or cells: striatum membranes
T1 sequence (Q61391 1-750): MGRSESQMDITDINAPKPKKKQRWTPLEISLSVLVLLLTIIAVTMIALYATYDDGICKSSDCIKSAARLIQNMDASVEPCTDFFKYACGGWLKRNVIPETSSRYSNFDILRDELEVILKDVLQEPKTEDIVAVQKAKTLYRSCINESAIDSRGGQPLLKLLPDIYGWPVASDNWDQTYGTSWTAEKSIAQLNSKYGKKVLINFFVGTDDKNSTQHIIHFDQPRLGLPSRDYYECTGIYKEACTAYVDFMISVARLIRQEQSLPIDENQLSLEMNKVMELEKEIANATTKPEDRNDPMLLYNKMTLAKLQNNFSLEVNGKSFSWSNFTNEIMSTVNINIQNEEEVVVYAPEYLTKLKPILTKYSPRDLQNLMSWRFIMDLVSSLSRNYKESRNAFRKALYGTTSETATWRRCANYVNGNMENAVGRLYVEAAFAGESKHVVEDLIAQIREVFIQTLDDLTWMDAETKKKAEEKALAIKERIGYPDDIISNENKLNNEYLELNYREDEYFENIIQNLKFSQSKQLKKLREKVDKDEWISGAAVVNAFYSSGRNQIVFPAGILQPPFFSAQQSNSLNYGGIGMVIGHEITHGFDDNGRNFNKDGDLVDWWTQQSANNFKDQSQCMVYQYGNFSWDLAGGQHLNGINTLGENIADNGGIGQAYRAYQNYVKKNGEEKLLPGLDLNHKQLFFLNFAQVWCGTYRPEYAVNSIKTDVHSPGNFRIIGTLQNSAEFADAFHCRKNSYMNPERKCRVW
Kind of assay: Enkephalinase inhibition in vitro on striatum membranes (Table 1 (a)). The format is biochemical. From the text:
(§1) Dosage of `enkephalinase` activity and angiotensin convertase (ACE) activity with determination of the effect of inhibitors both in vitro and on mouses in vivo: inhibition of the same enzymes and protection of natriuretic auricular factor.
(§2) ENKEPHALINASE AND ACE INHIBITING ACTIVITIES IN IN VITRO AND IN VIVO STRIATUM
(a)Activity measured on striatum membranes according to Llorens et al., J

Assay [4] relates to enkephalinase. Kind of assay: Enkephalinase inhibition in vivo in mouse striatum (Table 1 (b)). Conditions: 30 mn after i.v. administration.
Excerpt: as §1, §2
(b)Activity measured in mouse striatum 30 mn after i.v. administration
according to LlorensCortes et al., Eur. J. Pharmacol., 1985, 119, 183.

The target of assay [5] is T2, ACE (angiotensin convertase) (Mus musculus, UniProt P09470).
T2 construct: Activities measured on mouse striatum membranes in vitro or 30; from tissue; host or cells: mouse striatum (membranes)
T2 sequence (P09470 35-1312): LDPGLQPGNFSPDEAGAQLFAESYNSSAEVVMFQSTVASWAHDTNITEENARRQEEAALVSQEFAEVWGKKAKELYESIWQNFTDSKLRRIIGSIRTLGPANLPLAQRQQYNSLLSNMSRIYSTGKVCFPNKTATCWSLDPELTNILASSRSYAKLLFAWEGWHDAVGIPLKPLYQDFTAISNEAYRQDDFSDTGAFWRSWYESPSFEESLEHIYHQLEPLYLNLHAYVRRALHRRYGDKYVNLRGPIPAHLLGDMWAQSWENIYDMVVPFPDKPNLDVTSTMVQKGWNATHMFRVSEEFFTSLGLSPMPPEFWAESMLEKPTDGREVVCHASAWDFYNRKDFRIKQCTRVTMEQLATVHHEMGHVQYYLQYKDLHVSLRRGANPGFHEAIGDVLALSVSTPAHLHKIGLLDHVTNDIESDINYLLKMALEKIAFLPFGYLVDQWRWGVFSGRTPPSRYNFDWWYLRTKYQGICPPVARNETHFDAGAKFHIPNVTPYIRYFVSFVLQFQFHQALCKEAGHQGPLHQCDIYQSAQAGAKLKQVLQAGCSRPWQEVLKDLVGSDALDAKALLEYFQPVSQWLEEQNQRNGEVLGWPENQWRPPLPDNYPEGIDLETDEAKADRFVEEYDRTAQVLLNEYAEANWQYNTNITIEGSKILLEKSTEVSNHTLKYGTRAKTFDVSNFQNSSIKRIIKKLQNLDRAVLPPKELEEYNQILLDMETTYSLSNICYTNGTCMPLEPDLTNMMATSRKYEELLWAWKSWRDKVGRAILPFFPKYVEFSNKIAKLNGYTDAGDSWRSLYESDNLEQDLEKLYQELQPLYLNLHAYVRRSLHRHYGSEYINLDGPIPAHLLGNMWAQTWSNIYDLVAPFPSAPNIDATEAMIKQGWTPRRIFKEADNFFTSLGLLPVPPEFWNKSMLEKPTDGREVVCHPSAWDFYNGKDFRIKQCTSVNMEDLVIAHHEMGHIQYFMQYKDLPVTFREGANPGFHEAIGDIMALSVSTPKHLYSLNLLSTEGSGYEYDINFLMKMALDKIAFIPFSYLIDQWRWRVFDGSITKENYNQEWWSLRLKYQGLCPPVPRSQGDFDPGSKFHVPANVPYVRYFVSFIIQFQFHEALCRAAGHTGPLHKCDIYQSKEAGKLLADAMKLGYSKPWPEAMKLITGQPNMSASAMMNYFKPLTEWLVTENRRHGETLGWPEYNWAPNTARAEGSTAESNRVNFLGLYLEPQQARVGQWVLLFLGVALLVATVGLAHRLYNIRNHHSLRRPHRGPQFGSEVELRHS
The experiment in a line: ACE inhibition in vitro on mouse striatum membranes (Table 1 (c)). The format is biochemical.
Excerpt: as §1, §2
(§3) (c) and (d)Activities measured on mouse striatum membranes in vitro or 30
(§4) mn after i.v. administration according to Yang and Neff, J. Neurochem, […]

The target in assay [6] is T2, ACE (angiotensin convertase). The experiment in a line: ACE inhibition in vivo, mouse striatum (Table 1 (d)). Conditions: mouse, iv, 0.5 h, mouse striatum, 30 mn after i.v. administration; read-out: ACE In vivo(d) (DE50, mg/kg).
Excerpt: as §1, §2, §3, §4

Molecules are shown by their SMILES.

Regarding `CC(=O)SCC(Cc1ccccc1)C(=O)NCC(=O)OCc1ccccc1` (racemic) [Acetorphan, (R,S) N-/2-acetylthiomethyl-1-oxo-3-phenyl propyl/-glycine benzyl ester], the dose active intraveinously entry in assay [1] (i.v.) was “around 1 mg/kg”.

For the molecule `O=C(O)CNC(=O)C(CS)Cc1ccccc1` (racemic) [thiorphan], in assay [2], the “inhibition of angiotensin conversion enzyme” value is on record as “less powerful inhibitor of angiotensin conversion enzyme”. The cardiovascular activity entry in assay [1] (at a higher dose) is listed as “at a higher dose, a cardiovascular activity”. Besides, in assay [1] (systemically, relative to Acetorphan i.v. (around 1 mg/kg)), the “active dose systemically, times higher than Acetorphan” value was “about 50 times”. Besides, in assay [1] (used intraveinously or intracerebroventricularly), the analgesic properties result is reported as “analgesic properties”.

As for `COC(=O)[C@H](C)NC(=O)[C@H](CSC(C)=O)Cc1ccccc1` [(5), (R) N-/2-acetylthiomethyl-1-oxo-3-phenyl propyl/-(S)-alanine methyl ester], the results for the concentration for half-maximal inhibition (IC50) in assay [3] and in assay [5] were 3 nM and 2000 nM, respectively. Also, the “Enkephalinase In vivo(b) (DE50, mg/kg)” value in assay [4] came out at 0.9 mg/kg. For the same molecule, the ED50 in assay [6] is over 20 mg/kg.

Consider `COC(=O)[C@H](C)NC(=O)[C@@H](CSC(C)=O)Cc1ccccc1` [(6), (S) N-/2-acetylthiomethyl-1-oxo-3-phenylpropyl/-(S)-alanine methyl ester], for which the IC50 (usually the point on the concentration scale where inhibition reaches its midpoint) is 1.2 nM in assay [3] and 12 nM in assay [5]. Moreover, the “Enkephalinase In vivo(b) (DE50, mg/kg)” value in assay [4] was 0.3 mg/kg. Also, the ED50 in assay [6] came out at 4 mg/kg.

`O=C(O)CNC(=O)[C@H](CS)Cc1ccccc1` [(R) isomer]: the analgesic activity entry in assay [1] (intracerebral, separate enantiomers of thiorphan) is on record as “principally to the (R) isomer”.

For the molecule `O=C(O)CNC(=O)[C@@H](CS)Cc1ccccc1` [(S) isomer], in assay [2] (separate enantiomers of thiorphan), the “ACE's inhibiting activity” value is listed as “almost exclusively attributable to the (S) isomer”.
